The results in this text go back to US11155612B2, “vNAR antibody which binds VEGF for use in dogs or cats” (CENTRO DE INVESTIGACIÓN CIENTÍFICA Y DE EDUCACIÓN SUPERIOR …, priority 2017, dated 2021).

In this assay the test system is human umbilical vein endothelial cells (HUVEC) expressing GFP and normal human dermal fibroblasts (NHDF). In words: Angiogenesis assay (vascular tube formation, HUVEC/NHDF co-culture). It is filed as cell-based. The following applies: VEGF 4 ng/ml; 100 μM suramin positive control. The procedure:
In the vascular tube formation assay, a co-culture system of human umbilical vein endothelial cells (HUVEC) expressing GFP and normal human dermal fibroblasts (NHDF) was used. For cell seeding on day 0, one cryogenic vial of NHDF cells was thawed and resuspended in 12 ml of complete seeding medium. Then, 100 μl of this solution was added per well of a 96-well plate. The cells were incubated at room temperature for 1 hour. Then, 1 cryogenic vial of HUVECs was thawed and resuspended in 12 ml of complete seeding medium. HUVEC (100 μL per well) were seeded into the same plate as NHDFs. The cells were incubated at room temperature for another hour. The plate was then examined in an IncuCyte ZOOM and scanned using the “FOIL” scan type. After 24 hours, the culture medium was replaced with 150 μl of growth medium.
Forty-eight hours after seeding, the cells were treated with VEGF at 4 ng/ml and the test compounds at eight concentrations.
Serial dilutions of the compounds were prepared using assay media containing VEGF up to the final concentrations in FIG. 3. Then, 150 μl of medium containing the vNARs were added. In untreated wells, media without VEGF were added. For wells without compound, media with VEGF was added. […]
The formation of vessel tubes by fluorescently-labeled HUVECs was measured using live-cell imaging, and the effects of the vNARs on this process were assessed.

Each structure is given as a SMILES string.

For the compound `Cc1ccc(C(=O)Nc2ccc(S(=O)(=O)O)c3cc(S(=O)(=O)O)cc(S(=O)(=O)O)c23)cc1NC(=O)c1cccc(NC(=O)Nc2cccc(C(=O)Nc3cc(C(=O)Nc4ccc(S(=O)(=O)O)c5cc(S(=O)(=O)O)cc(S(=O)(=O)O)c45)ccc3C)c2)c1` [suramin, reference compound], the “inhibition of VEGF-increased tube branching” value is recorded as “inhibited”.
